In the case of `CC(C)N1CCC(CNc2ccc(NS(C)(=O)=O)cc2C(=O)Nc2ccc(Cl)cn2)CC1`, the melting point is reported as 204 to 205 °C.
Work on `COC(=O)C1Cc2c(OC)cccc2N1S(=O)(=O)c1ccc(-c2ccc(F)cc2F)cc1` (configuration not stated) yielded a melting point of 162 °C.
Work on `CN(C)S(=O)(=O)c1cc(-c2csc(=Nc3ccccc3)n2C)ccc1Cl` yielded a melting point of 180 °C.
Work on `COc1ccccc1C1OC(=O)NC1=O` (configuration not stated) yielded a melting point of 175 to 177 °C.
With `CCOC(=O)c1cc(=O)c2cc(OC)cc(Br)c2o1` the melting point was 159 to 161 °C.
Work on `COc1ccc2c(c1)c1c(n2Cc2ccc(C(C)(C)C)cc2)COC(=O)C1=O` yielded a melting point of 238 to 239 °C.
In the case of `CN1CCN(C(=O)c2ccc(-c3[nH]nc4c3C(=O)c3c(NC(=O)NN5CCOCC5)cccc3-4)s2)CC1`, the melting point is reported as 186 to 187 °C.
Work on `Cc1c(OCc2ccccc2)c(=O)ccn1CC(=O)NCCCCNCCCNC(=O)Cn1ccc(=O)c(OCc2ccccc2)c1C` yielded a melting point of 89 °C.
For `CS(=O)(=O)Nc1cc2occ(NS(C)(=O)=O)c(=O)c2cc1Oc1ccccc1`, the melting point was 199 to 200 °C.
`COc1cccc(Sc2ccnc(Nc3ccc(N4CCOCC4)cc3)n2)c1` gave a melting point of 159 to 161 °C.
With `CCNC(=N)N(C(=N)NCC)c1cc(C(C)(C)C)c2c(c1)C(C)(C)CO2` the melting point was over 290 °C.
In the case of `CCN(CC)C1=NN(Nc2ccc3nc(C)cc(N)c3c2)NC(Cl)=C1`, the melting point is reported as 120 °C.
`COc1ccc(NC(=O)c2c(Cl)cccc2Cl)c2nccc(NN)c12` gave a melting point of over 250 °C.
Work on `CCCCCCC1C(=O)CCC1C(=O)O` (configuration not stated) yielded a melting point of 73 to 74 °C.
Compound `Clc1ccc(-c2csc(-c3cnccc3N3CCOCC3)n2)cc1` has a melting point of 169 °C.
`CC(O)(C#Cc1ccc(S(=O)(=O)N2CCCC2)cc1)C(F)(F)F` (configuration not stated) gave a melting point of 140 to 143 °C.
With `CC1(C)CCc2c(ccc3c2C(=O)C=C(O)C3=O)O1` the melting point was 184 to 187 °C.
`CCCCCC(O)C=Cn1c(=O)n(CCN2CCN(c3ccccc3OC)CC2)c(=O)c2ccccc21` (configuration not stated) gave a melting point of 118 to 119 °C.
Compound `COc1ccc(NC(=O)c2ccc(Br)s2)cc1N1CCN(C)CC1` has a melting point of 114 to 115 °C.
Work on `Cc1nc2ccccc2nc1S(=O)Cc1ccccc1N(C)C` (configuration not stated) yielded a melting point of 68 to 70 °C.
Compound `C=CCc1cc(C)c2c(c1O)C(C)(C)C(=O)N2Cc1ccccc1` has a melting point of 161 to 162 °C.
For `O=C(c1ccc(C2CCCCC2)cc1)N1Cc2cccn2Cc2ncccc21`, the melting point was 150 to 152 °C.
`CC(C)(O)CON1C(C)(C)CC(OC(=O)c2ccc3nn(-c4cc(C(C)(C)C)cc(C(C)(C)c5ccc(Cl)cc5)c4O)nc3c2)CC1(C)C` showed a melting point of 80 to 90 °C.
For `Brc1ccc(Cc2cc3ccccc3[nH]2)cc1`, the melting point was 136 °C.
`CCn1cnc2c(Nc3cccc(Cl)c3)nc(N3CCC[C@@H]3CN)nc21` showed a melting point of 126 to 129 °C.
With `N=C1NCCN1Cc1ccccc1` the melting point was 165 to 167 °C.
In the case of `C#CCN(Cc1cc2c(=O)n(CCN(C)C)c(CN3CCCCC3)nc2cc1Cl)c1ccc(C(=O)NCc2cccnc2)cc1`, the melting point is reported as 90 to 93 °C.
Compound `Cc1nc(N2CCN(CCCC(F)(F)F)C2=O)sc1C(=O)NCc1ccncc1` has a melting point of 178 to 181 °C.
`COC(=O)N[C@H]1Cc2ccc(N)cc2C1` gave a melting point of 140 to 142 °C.
For `N#Cc1nn(-c2c(Cl)cc(-c3ccc(C(F)(F)F)cc3)cc2Cl)c(N)c1S(=O)(=O)C(F)(F)F`, the melting point was 197 to 202 °C.
`Cc1c(F)c(N2CCNCC2)c(F)c2c1c(=O)c(C(=O)O)cn2-c1ccc(F)cc1F` gave a melting point of 240 to 242 °C.
Compound `O=c1ccoc2cc(OCCCNCC3COc4ccc(O)cc4O3)ccc12` (configuration not stated) has a melting point of 186 to 189 °C.
`COc1cccn2c(=O)c(CCN3CCC(c4noc5cc(F)ccc45)CC3)c(C)nc12` showed a melting point of 209 °C.
With `N#Cc1nsc2ccc([N+](=O)[O-])cc12` the melting point was 168 to 170 °C.
`c1ccc(-c2cnc(-c3ccccc3)s2)cc1` gave a melting point of 102 to 105 °C.
`O=C(CCCCCc1ccc(Cl)cc1)Nc1ccc(C(=O)O)cc1` gave a melting point of 218 to 220 °C.
Work on `Clc1cc(OC[C@@H]2CCN2)cnc1Cl` yielded a melting point of 59 to 60 °C.
Compound `COc1cc(NC(=O)C(C)(C)C)ccc1C(=O)N(C)C` has a melting point of 143 to 144 °C.
Work on `CCc1nc2c(C)c([N+](=O)[O-])c(C)nc2[nH]1` yielded a melting point of 146 to 149 °C.
`CCOc1nn(Cc2ccc(OCc3nc(-c4ccco4)oc3C)nc2)cc1CC(=O)O` gave a melting point of 155 to 156 °C.
For `CCn1c2ccccc2c2oc(C(=O)Cl)cc21`, the melting point was 127 to 129 °C.
With `COC(=O)c1c(SC)c2cc(OC)ccc2n1C` the melting point was 89 to 91 °C.
For `CS(=O)(=O)c1ccc(-n2nc(C(F)(F)F)cc2-c2ccc(-c3cocn3)cc2)cc1F`, the melting point was 164 to 166 °C.
`CCNc1cccnc1N1CCN(C(=O)c2ccc(C(=O)O)cn2)CC1` showed a melting point of 155 to 157 °C.
For `C[C@@H]1N(c2ccc(C#N)c(Cl)c2)C(=O)C[C@@]1(O)C1CC1`, the melting point was 93 to 100 °C.
For `CC(C)[C@H](NC(=O)N(C)Cc1ccccn1)C(=O)O`, the melting point was 145 °C.
With `O=S(=O)(Nc1ccc(Cl)cc1C(=NOc1ccc(Cl)cc1)c1ccccc1)C(F)(F)F` the melting point was 86 to 87 °C.
Work on `CN1CCC(c2c[nH]c3ccc(NS(=O)(=O)c4cccc5ccccc45)cc23)CC1` yielded a melting point of 254 to 256 °C.
`C#CCN(C(C)=O)c1cccc(C(=O)C=CN(C)C)c1` showed a melting point of 98 to 101 °C.
Compound `COC(=O)[C@@H]1[C@H](c2ccccc2)CC(=O)N1C` has a melting point of 100 °C.
Compound `CCCc1[nH]c2cc(C(N)=O)ccc2c1C(=O)C1CCCCC1` has a melting point of 245 to 247 °C.
With `CCOC(=O)Cc1c(C)n(Cc2cccc(OC)c2)c2ccc(OCc3csc(-c4ccccc4)n3)cc12` the melting point was 85 to 86 °C.
Compound `Nc1cc(F)ccc1C(=O)NCCN1CCC(n2c(=O)[nH]c3ccccc32)CC1` has a melting point of 229 °C.
Compound `OCCCc1ccccc1N(Cc1ccccc1)Cc1ccccc1` has a melting point of 71.5 to 73 °C.
Compound `CC(C=CO)c1ccc(-c2ccc(Cl)cc2)cc1` (configuration not stated) has a melting point of 130 to 132 °C.
In the case of `COC1CCCN(Nc2nc(Cl)nc3c2ncn3C2OC(CCl)C(O)C2O)C1` (configuration not stated), the melting point is reported as 200 to 202 °C.
For `FC(F)(F)CNc1ccc2c(c1)N1CCCN=C1S2`, the melting point was 187 °C.
Compound `O=c1cc(-c2ccc(O)c(Cl)c2)oc2ncccc12` has a melting point of 259 to 262 °C.
`NC(=O)c1cc2c(Oc3ccc(C(=O)N4CCOCC4)cc3)cncc2s1` showed a melting point of over 260 °C.
Compound `CCCCCN1C(=O)C(CCC(=O)OC)(NC(=O)c2ccc(Cl)c(Cl)c2)c2ccccc21` (configuration not stated) has a melting point of 84 to 114 °C.
In the case of `O=[N+]([O-])c1ccc(OS(=O)(=O)c2cccnc2Cl)cc1`, the melting point is reported as 127 to 128 °C.
In the case of `COc1ccc(C(=O)c2c(N(C)C)sc3cc(OCc4ccccc4)ccc23)cc1OC`, the melting point is reported as 69 to 72 °C.
Work on `O=C(Oc1cc(F)ccc1F)c1cc2cc(CCl)ccc2oc1=O` yielded a melting point of 137 to 140 °C.
For `CCCCCNc1ncnc2c(C(C)C)n[nH]c12`, the melting point was 73 to 75 °C.
Compound `Cc1cc(C(=O)Nc2ccc(OCC(C)(C)C)c(C#N)c2)n(-c2ccc(F)cc2)n1` has a melting point of 165 °C.
In the case of `O=[N+]([O-])c1ccc(-c2ccc(I)cc2C(F)(F)F)c(C(F)(F)F)c1`, the melting point is reported as 67 to 68 °C.
Compound `CCOC(=O)C(=O)Nc1cccc(NC(=O)C(=O)OCC)c1` has a melting point of 150 °C.
`CC(C)(C)C(=O)c1c[nH]c2ncc(-c3cccc(NC4CCCC4O)c3)nc12` (configuration not stated) gave a melting point of 178 to 180 °C.
With `CCOC(=O)c1sc2cc(CO)ccc2c1Sc1cccc(OC)c1` the melting point was 110 to 112 °C.
Compound `N#Cc1ccc(-c2nc(CCl)co2)s1` has a melting point of 146 to 147 °C.
`CCn1c(C)c(C2(N(c3ccccc3)c3ccccc3C(=O)OC)OC(=O)c3ccccc32)c2ccccc21` (configuration not stated) showed a melting point of 80 to 115 °C.
In the case of `COc1ccc(COc2cc(N)c(Cl)cc2C(=O)CCCCN2CCCCC2)cc1OC`, the melting point is reported as 120 to 122 °C.
For `CC(=O)C(=Cc1ccc([N+](=O)[O-])cc1)CC(=O)OCCC#N`, the melting point was 98 to 100 °C.
In the case of `CCCCOCCOc1ccc(-c2ccc3c(c2)C=C(C(=O)Nc2ccc(S(=O)Cc4ncnn4C)cc2)CCN3CC(C)C)cc1` (configuration not stated), the melting point is reported as 135 to 138 °C.
`CN(C)Cc1cc(C(=O)c2cccs2)cc(C2CCCCC2)c1O` gave a melting point of 105 to 106 °C.
In the case of `CCOC(=O)c1c(C(F)(F)F)nc(C(F)(F)F)c(C(=O)OC)c1Cl`, the melting point is reported as 46 to 48 °C.
For `COc1cc2ncnc(N3CCN(C(=O)Nc4ccc(C(=O)C(F)(F)F)cc4)CC3)c2cc1OC`, the melting point was 144 to 146 °C.
Compound `CC(C)CCNC(Nc1cc(C(F)(F)F)cc(C(F)(F)F)c1)=C(C#N)C(=O)OC(C)(C)C` has a melting point of 128 to 129 °C.
Work on `Cc1c(F)cc(C(=O)NCCC(C)C)cc1-c1ccc(C(=O)NCC(C)(C)C)cc1C(=O)Nc1nccs1` yielded a melting point of 159 to 164 °C.
`CC#CNC(=O)NC(=NC(=O)NCCCCCCCC)SC` gave a melting point of 123 to 125 °C.
In the case of `CC(C)CCSc1cc(C(=O)O)cc([N+](=O)[O-])c1-c1ccccc1`, the melting point is reported as 143 to 144 °C.
For `O[C@@H]1c2ccccc2C=C[C@H]1NCc1ccccc1` (relative stereo), the melting point was 125 to 126 °C.
Work on `COc1cc2ncc(NC3CCCCC3)nc2cc1OC` yielded a melting point of 149 to 151 °C.
`Nc1c(F)c(N2CCC(c3ccncc3)C2)c(F)c2c1c(=O)c(C(=O)O)cn2C1CC1` (configuration not stated) showed a melting point of 236 to 238 °C.
For `COC(=O)c1cc(C)c(OCCNC(=O)C2Cc3ccccc3N2S(=O)(=O)c2ccc(-c3cccc(C(F)(F)F)c3)cc2)c(C)c1` (configuration not stated), the melting point was 81 to 83 °C.
With `Fc1cc2c(cc1F)C(Cl)Cc1ccccc1S2` (configuration not stated) the melting point was 68 to 71 °C.
With `Cc1nn(-c2ccc(NC=C3C(=O)NC(=O)c4ccc(Br)cc43)cc2)c(C)c1Cl` the melting point was 290 to 291 °C.
For `COc1cc(-c2cnc3[nH]cc(C(=O)C(C)(C)OC)c3n2)cc(OC)c1OC`, the melting point was 238 to 239 °C.
Work on `OC1CSC(Oc2ccc(-c3ccc(F)nc3)nc2Cl)C(O)C1O` (configuration not stated) yielded a melting point of 199 °C.
For `CN(C)c1ncnc2c1c(-c1ccc([N+](=O)[O-])o1)nn2C`, the melting point was 161 °C.
Compound `Cc1ccc(Cl)c(NS(=O)(=O)c2nc3nc(Cl)cc(Cl)n3n2)c1Cl` has a melting point of 269 to 271 °C.
In the case of `C=Cc1ccc(C#N)cn1`, the melting point is reported as 29 to 30 °C.
`Cc1[nH]c(C=O)c2c1-c1ccc(Cl)cc1C(c1ccccc1Cl)=NC2` gave a melting point of 274 to 276 °C.
For `CCOC(=O)CCC(=O)c1ccc(CCNS(=O)(=O)c2cccc(C(F)(F)F)c2)cc1`, the melting point was 83 to 85 °C.
For `COc1ccc2c(c1)C(C)(N)C(=O)N2c1ccc(F)cc1` (configuration not stated), the melting point was 163 to 164 °C.
Compound `O=CNC1=NN(c2cccc(Cl)n2)CC1` has a melting point of 190 to 192 °C.
With `CC(Cc1ccc(Oc2cc(N3CCN(Cc4ccccn4)CC3)nc(N)n2)cc1)(Oc1ccccc1)C(=O)O` (configuration not stated) the melting point was 138 to 139 °C.

From a melting point compilation (Tetko et al.; mined from patent text by program, amines drawn as free bases though some values may be those of a salt)
